Positions of bridges follow the written chain, without caps; N, C: chain ends. Non-standard residues stand in square brackets, D forms with d. Residues, ends and D or L forms follow the SMILES beside them. NMeF = CN[C@@H](Cc1ccccc1)C(=O)O
How the values were obtained:
[1] = molecular target: T1, recombinant ICL from C. albicans (Candida albicans, UniProt Q9P8Q7); assay: ICL inhibition assay; format: biochemical; settings: 37 °C, 30 min
T1 construct: made in house
Experimental: The recombinant ICL from C. albicans was prepared and the inhibitory activity of the test compounds against ICL was determined by previously documented procedures. […] The increase in intensity of absorbance resulting from the formation of glyoxylate phenylhydrazone was observed using an UVmini-1240 spectrophotometer (SHIMADZU, Tokyo, Japan) at a wavelength of 324 nm. A known ICL inhibitor, 3-nitropropionic acid, was used as a reference control.

[2] = molecular target: T2, S. aureus-derived recombinant SrtA (Staphylococcus aureus, UniProt Q2FV99); assay: biochemical
T2 construct: made in house; host or cells: E. coli
T2 sequence (Q2FV99 whole entry): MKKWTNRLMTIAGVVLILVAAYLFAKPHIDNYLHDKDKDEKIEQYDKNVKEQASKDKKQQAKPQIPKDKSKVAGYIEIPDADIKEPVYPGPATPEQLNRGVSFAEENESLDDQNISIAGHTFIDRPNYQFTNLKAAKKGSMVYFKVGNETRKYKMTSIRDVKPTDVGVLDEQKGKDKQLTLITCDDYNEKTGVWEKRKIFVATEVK

[3] = molecular target: isocitrate lyase (ICL) derived from C. albicans; parameters: method as in PMID 31167388; settings: previously reported; cited from earlier work
[4] = system: Staphylococcus epidermidis; parameters: method as in PMID 25001296; settings: cited from earlier work
Bacillus cereus = system: Bacillus cereus; parameters: method as in PMID 25001296; settings: cited from earlier work

T1 sequence (Q9P8Q7 whole entry): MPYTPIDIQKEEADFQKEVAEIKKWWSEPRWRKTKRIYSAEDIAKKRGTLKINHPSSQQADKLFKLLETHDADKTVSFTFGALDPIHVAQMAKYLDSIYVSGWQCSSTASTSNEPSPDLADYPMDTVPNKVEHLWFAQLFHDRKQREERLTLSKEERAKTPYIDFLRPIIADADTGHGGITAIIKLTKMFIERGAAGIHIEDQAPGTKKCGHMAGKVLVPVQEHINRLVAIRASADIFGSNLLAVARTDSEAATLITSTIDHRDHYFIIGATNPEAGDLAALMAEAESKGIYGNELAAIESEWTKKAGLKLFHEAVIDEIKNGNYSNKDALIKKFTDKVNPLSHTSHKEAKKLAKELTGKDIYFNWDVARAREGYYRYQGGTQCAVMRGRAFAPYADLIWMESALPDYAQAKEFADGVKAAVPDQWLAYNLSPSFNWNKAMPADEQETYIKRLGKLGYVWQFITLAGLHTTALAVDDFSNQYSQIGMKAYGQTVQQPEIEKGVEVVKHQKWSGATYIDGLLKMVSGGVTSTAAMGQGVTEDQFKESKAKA

Compound | IC50 [2] [µM] | further results
O=C(O)CC[N+](=O)[O-] [3-Nitropropionic acid] | – | IC50 [1]: 18.5 µM
COc1ccc2cc3[n+](cc2c1OC)CCc1cc2c(cc1-3)OCO2 [Berberine chloride] | 104 | –
CC(C)C[C@@H]1NC(=O)[C@@H]2CCCN2C(=O)[C@H](Cc2ccc(O)cc2)NC(=O)[C@H](Cc2ccccc2)N(C)C(=O)[C@H](C)NC1=O [Compound 1, JG002CPA] (cyclo(A[NMeF]YPL)) | 70 | –
CC(C)[C@@H]1NC(=O)[C@@H]2CCCN2C(=O)[C@H](Cc2ccc(O)cc2)NC(=O)[C@H](Cc2ccccc2)N(C)C(=O)[C@H](C)NC1=O [Compound 2, JG002CPB] (cyclo(A[NMeF]YPV)) | 53.1 | IC50 [1]: 117 µM
CC(=O)N[C@@H]1C(=O)N[C@H](C(C)C)C(=O)N2CCC[C@H]2C(=O)N[C@@H](Cc2ccc(O)cc2)C(=O)N(C)[C@@H](Cc2ccccc2)C(=O)N[C@@H](C)C(=O)O[C@@H]1C [Compound 3, FJ120DPA] (Ac-T[dV]PY[NMeF]A; ester 1-C) | 132 | –
CC(=O)N[C@H](C(=O)N[C@@H](C(=O)N1CCC[C@H]1C(=O)N[C@@H](Cc1ccc(O)cc1)C(=O)N(C)[C@@H](Cc1ccccc1)C(=O)N[C@@H](C)C(=O)O)C(C)C)[C@@H](C)O [Compound 4, FJ120DPB] (Ac-T[dV]PY[NMeF]A-OH) | 77 | –
CC(C)[C@@H]1NC(=O)[C@H](Cc2ccccc2)NC1=O [cyclo(L-Phe-L-Val)] | – | IC50 [3]: 110 µM
asperpeptide A | – | MIC [4]: 12.5 µM; MIC (Bacillus cereus): 12.5 µM
